Source: PMC6199744, “Development of Chemical Proteomics for the Folateome and Analysis of the Kinetoplastid Folateome” (ACS Infectious Diseases, 2018)

Test system: L. major lysate proteins
Experiment: Multitargeted bead mixture chemoproteomics, single concentration competition, proteome-wide
Format: binding
Settings: for fold change: vehicle control = 1

In the case of `Nc1nc2[nH]cc(CCc3ccc(C(=O)N[C@@H](CCC(=O)O)C(=O)O)cc3)c2c(=O)[nH]1` [PTX, pemetrexed], the “fold change vs vehicle control” value (protein LMJF.28.0110 […] 3 SUBUNIT, PUTATIVE) is reported as 0.95, the “fold change vs vehicle control” value (protein LMJF.28.0490 PROPIONYL-COA C[…] CHAIN, PUTATIVE) is reported as 1.09 and the fold change (protein LMJF.28.0710 HY[…], CONSERVED (SNARE associated Golgi protein, putative)) is reported as 0.8. For the same compound, the “fold change vs vehicle control” value (protein LMJF.28.0930 HY[…], CONSERVED) was 0.96, the “fold change vs vehicle control” value (protein LMJF.28.0960 40S RIBOSOMAL PROTEIN S14) was 1.01 and the “fold change vs vehicle control” value (protein LMJF.28.1530 ATP DEPENDENT DEAD-BOX HELICASE, PUTATIVE) was 0.81. The “fold change relative to vehicle control” value (protein LMJF.28.1730, […]-ATP-ASE SUBUNIT 2, PUTATIVE) was 1.01, the “fold change vs vehicle control” value (protein LMJF.28.2430 VACUOLAR ATP SYNTHASE SUBUNIT B, PUTATIVE) was 0.95 and the “fold change relative to vehicle control” value (protein LMJF.28.2770, HEAT-SHOCK PROTEIN HSP70, PUTATIVE) was 1.13. The fold change (protein LMJF.28.2910 GLUTAMATE DEHYDROGENASE, PUTATIVE) was 0.86, the “fold change vs vehicle control” value (protein LMJF.29.0120 […]-ATPASE SUBUNIT, PUTATIVE) was 0.92 and the fold change (protein LMJF.29.0620 ATP-BINDING CASSETTE PROTEIN SUBFAMILY A, MEMBER 10, PUTATIVE) was 0.73. The “fold change relative to vehicle control” value (protein LMJF.29.0850, HIGH MOBILITY GROUP PROTEIN HOMOLOG TDP-1, PUTATIVE) was 1.14, the “fold change vs vehicle control” value (protein LMJF.29.0940 HY[…], CONSERVED) was 1 and the “fold change vs vehicle control” value (protein LMJF.29.1160 TRYPAREDOXIN) was 0.85. For the same compound, the “fold change vs vehicle control” value (protein LMJF.29.1240 HY[…], UNKNOWN FUNCTION) was 0.95, the “fold change vs vehicle control” value (protein LMJF.29.1270 100 kDa heat shock protein (Hsp100)) was 0.95 and the “fold change vs vehicle control” value (protein LMJF.29.1310 CARNITINE/CHOLINE ACETYLTRANSFERASE, PUTATIVE) was 0.97. The “fold change relative to vehicle control” value (protein LMJF.29.1760, PAR[…] PROTEIN 1D, PUTATIVE) was 1.4, the “fold change vs vehicle control” value (protein LMJF.29.1780 D[…] PROTEIN, PUTATIVE) was 0.9 and the fold change (protein LMJF.29.2200 GTP-BINDING PROTEIN, PUTATIVE (dynamin-1-like protein)) was 0.98. For the same compound, the fold change (protein LMJF.29.2310 ENOYL-COA HYDRATASE/ISOMERASE-LIKE PROTEIN) was 0.93, the “fold change vs vehicle control” value (protein LMJF.29.2360 ASPARTYL AMINOPEPTIDASE, PUTATIVE,METALLO-PEPTIDASE, CLAN MH, FAMILY M20) was 0.84 and the fold change (protein LMJF.29.2860 40S RIBOSOMAL PROTEIN S19-LIKE PROTEIN) was 1.11. The fold change (protein LMJF.30.0580 HY[…], CONSERVED (AMP-binding enzyme, putative)) was 0.77, the fold change (protein LMJF.30.0850 SURFACE PROTEIN AMASTIN, PUTATIVE) was 0.89 and the “fold change vs vehicle control” value (protein LMJF.30.1250 PYRIDOXAL KINASE, PUTATIVE) was 1.01. The “fold change relative to vehicle control” value (protein LMJF.30.3090, HY[…], CONSERVED (RNA-binding protein 42, putative)) was 1.14, the “fold change vs vehicle control” value (protein LMJF.30.3240 GLUTAMYL-TRNA SYNTHETASE, PUTATIVE) was 1.09 and the fold change (protein LMJF.30.3430 HY[…], CONSERVED (protein mkt1, putative)) was 0.97. The fold change (protein LMJF.30.3520 S-ADENOSYL[…]) was 0.85, the fold change (protein LMJF.30.3570 ZINC FINGER-DOMAIN PROTEIN, PUTATIVE) was 0.7 and the “fold change relative to vehicle control” value (protein LMJF.31.0080, HY[…], CONSERVED) was 1.19. For the same compound, the “fold change vs vehicle control” value (protein LMJF.31.0340 AMINO ACID PERMEASE, PUTATIVE) was 0.93, the fold change (protein LMJF.31.1130 N-ACYL-L-AMINO ACID AMIDOHYDROLASE, PUTATIVE) was 0.96 and the “fold change vs vehicle control” value (protein LMJF.31.1640 THIOLASE PROTEIN-LIKE PROTEIN) was 0.95. For the same compound, the “fold change relative to vehicle control” value (protein LMJF.31.2150, PROSTAGLANDIN F2-ALPHA SYNTHASE/D-ARABINOSE DEHYDROGENASE) was 0.94, the “fold change vs vehicle control” value (protein LMJF.31.2250 3,2-TRANS-ENOYL-COA ISOMERASE, MIT[…], PUTATIVE) was 0.92 and the “fold change vs vehicle control” value (protein LMJF.32.0750 RNA BINDING PROTEIN, PUTATIVE) was 1.04. For the same compound, the “fold change vs vehicle control” value (protein LMJF.32.1060 DYNEIN, PUTATIVE) was 0.94, the “fold change relative to vehicle control” value (protein LMJF.32.1820, IRON SUPEROXIDE DISMUTASE, PUTATIVE) was 1.02 and the “fold change relative to vehicle control” value (protein LMJF.32.2320, C-14 STEROL REDUCTASE, PUTATIVE) was 1.11. The “fold change vs vehicle control” value (protein LMJF.32.3870 MYOSIN XXI) was 0.93, the “fold change relative to vehicle control” value (protein LMJF.33.0240, THIOL-DEPENDENT REDUCTASE 1) was 1.12 and the fold change (protein LMJF.33.0280 HY[…], CONSERVED) was 1.02. The “fold change relative to vehicle control” value (protein LMJF.33.0890, HY[…], CONSERVED) was 0.88, the “fold change vs vehicle control” value (protein LMJF.33.1070 HY[…], UNKNOWN FUNCTION) was 1.02 and the “fold change vs vehicle control” value (protein LMJF.33.1330 CYSTEINE CONJUGATE BETA-LYASE, AMINOTRANSFERASE- LIKE PROTEIN) was 0.74. The fold change (protein LMJF.33.1590 HY[…], CONSERVED (3-ketoacyl-CoA reductase, putative)) was 1.36, the “fold change relative to vehicle control” value (protein LMJF.33.1860, ATP-BINDING CASSETTE PROTEIN SUBFAMILY D, MEMBER 3, PUTATIVE) was 1.27 and the “fold change relative to vehicle control” value (protein LMJF.33.2340, SUCCINYL-COA:3-KETOACID-COENZYME A TRANSFERASE, MIT[…], PUTATIVE) was 1.06. For the same compound, the “fold change relative to vehicle control” value (protein LMJF.33.2440, HY[…], CONSERVED) was 1.15, the “fold change relative to vehicle control” value (protein LMJF.33.2540, CARBOXYPEPTIDASE, PUTATIVE,METALLO-PEPTIDASE, CLAN MA(E), FAMILY M32) was 1.24 and the fold change (protein LMJF.33.3150 40S RIBOSOMAL PROTEIN S13, PUTATIVE) was 1.05. The “fold change relative to vehicle control” value (protein LMJF.34.0140, MALATE DEHYDROGENASE) was 1.48, the “fold change vs vehicle control” value (protein LMJF.34.0440 RIBOSOMAL PROTEIN S25) was 1.12 and the “fold change relative to vehicle control” value (protein LMJF.34.2580, HY[…], CONSERVED (ALBA-domain protein 3)) was 1.03. The “fold change relative to vehicle control” value (protein LMJF.34.3250, PUTATIVE PYRUVATE/INDOLE-PYRUVATE CARBOXYLASE, PUTATIVE) was 1.01, the fold change (protein LMJF.34.4370 20S […] 7 SUBUNIT, (PUTATIVE)) was 0.96 and the “fold change vs vehicle control” value (protein LMJF.34.4620 HY[…], CONSERVED) was 0.95. For the same compound, the fold change (protein LMJF.35.0070 PROHIBITIN, PUTATIVE) was 0.97, the “fold change vs vehicle control” value (protein LMJF.35.0360 ENOYL-COA HYDRATASE/ISOMERASE FAMILY PROTEIN, CONSERVED) was 1.16 and the fold change (protein LMJF.35.0370 ATP-DEPENDENT DEAD-BOX RNA HELICASE, PUTATIVE) was 0.95. The fold change (protein LMJF.35.0420 40S RIBOSOMAL PROTEIN S3A, PUTATIVE) was 1.12 and the “fold change relative to vehicle control” value (protein LMJF.35.1220, SHORT CHAIN DEHYDROGENASE, PUTATIVE) was 1.02.
